From paper PMC6413952, “Discovery of ABBV-4083, a novel analog of Tylosin A that has potent anti-Wolbachia and anti-filarial activity” (PLoS Neglected Tropical Diseases, 2019) come the findings set out here.

Bounds are passed on as bounds.

Data set [1] is described as follows: Rat oral pharmacokinetic study (plasma AUC, C8hr). Format: in vivo, Sprague-Dawley rats. The note with it: for C*8hr / C*8hr/ EC50 / AUC*/EC50: PO rats; for AUC* parent / AUC* TylA (metabolite): PO, Sprague-Dawley rats; for AUC* TylA (metabolite): primary metabolite TylA; for drug levels relative to 2'-OH partners 5c and 5d / improvement in plasma drug levels (AUC) over TylA: rats; for C*8hr/ EC50: potency-weighted 8-hr drug level; for AUC*/EC50: potency-weighted AUC. As to the method:
PO doses were administrated by oral gavage, IP doses by intraperitoneal injection to BALB/c mice or Sprague-Dawley rats (Charles River Laboratories, USA). Serial blood samples collected into EDTA anticoagulant for plasma concentration analysis were obtained from each animal after dosing. EDTA preserved plasma samples were extracted by protein precipitation with acetonitrile fortified with internal standards. The supernatant was injected into an HPLC-MS/MS system for separation and quantitation. Detection was accomplished using a triple quadrupole mass spectrometer operated either in electrospray or atmospheric chemical ionization (APCI) mode. The area under the plasma concentration-time curve (AUC) was calculated using the linear trapezoidal rule.

Data set [2] deals with Wolbachia pipientis in Aedes albopictus C6/36 (wAlbB) insect cells. The experiment in a line: A·WOL Wolbachia-infected Aedes albopictus (C6/36 wAlbB) 7-day cell-based assay, high content imaging. The note with it: for activity against Wolbachia: commercially available 16-membered macrolides. The source says: Compounds were screened for anti-Wolbachia activity in vitro in the A·WOL-validated Wolbachia-infected Aedes albopictus (C6/36 wAlbB) 7-day cell-based assay which utilizes a 384-well format assay with high content imaging (HCI) (Operetta) as described previously.
We began our work by selecting a diverse and representative sample of the AbbVie antibiotics collection (129 compounds) for single-point testing against Wolbachia pipientis in an insect cell line. […] While TylA has a long history of use in multiple animal species, it has never been studied in humans; and its activity against Wolbachia has not previously been reported.

The next data set deals with MDR-MDCK monolayer. Format: in vitro ADME, canine. The note with it: MDCK-MDR1. The source says:
Drug levels in the IP arm of this study were >30-fold higher than those achieved when the drug is given PO. […] Therefore, improving drug absorption by increasing permeability became a primary goal for our lead-optimization studies.

The next data set relates to Litomosoides sigmodontis. Kind of data set: Litomosoides sigmodontis larval mouse model (worm length). Format: in vivo, BALB/c mice. The note with it: 35 days post-infection. As to the method:
As described previously, female BALB/c mice or female jirds were infected at 6–8 weeks of age with L. sigmodontis larvae through the bites of Ornithonyssus bacoti mites. […] One day post infection, mice were dosed IP or PO with TylA (Sigma Aldrich, 200 mg/kg BID x 7 days), doxycycline hyclate (Sigma-Aldrich, 200 mg/kg BID x 14 days), or vehicle using a volume of 10 ml/kg. At 35 days post-infection mice were euthanized using an overdose of isoflurane; worms were recovered from the pleural cavity by pleural lavage, counted, sexed and staged for development into L4 and adult worms based on the difference of the buccal capsule through microscopic examination. Female worms were measured for length (mm) as a marker for development as previously described. Data were distributed in a non-parametric fashion, median and interquartile ranges are presented. For comparing the length of the female worms, the Mann-Whitney-U test was used to calculate statistical differences either against the vehicle treated or gold standard groups.

A short description of data set [3]: Mouse pharmacokinetic study (plasma levels, IP or PO). Format: in vivo, BALB/c mice.
Method: PO doses were administrated by oral gavage, IP doses by intraperitoneal injection to BALB/c mice or Sprague-Dawley rats (Charles River Laboratories, USA). Serial blood samples collected into EDTA anticoagulant for plasma concentration analysis were obtained from each animal after dosing. EDTA preserved plasma samples were extracted by protein precipitation with acetonitrile fortified with internal standards. The supernatant was injected into an HPLC-MS/MS system for separation and quantitation. Detection was accomplished using a triple quadrupole mass spectrometer operated either in electrospray or atmospheric chemical ionization (APCI) mode. The area under the plasma concentration-time curve (AUC) was calculated using the linear trapezoidal rule. […] Plasma levels of TylA in BALB/c mice following IP or PO dosing (100 mg/kg).

For `CC[C@H]1OC(=O)C[C@@H](O)[C@H](C)[C@@H](O[C@@H]2O[C@H](C)[C@@H](O[C@H]3C[C@@](C)(O)[C@@H](OCc4ccc(F)cc4)[C@H](C)O3)[C@H](N(C)C)[C@H]2OC(=O)C(C)C)[C@@H](CC=O)C[C@@H](C)C(=O)/C=C/C(C)=C/[C@@H]1CO[C@@H]1O[C@H](C)[C@@H](O)[C@@H](OC)[C@H]1OC` [Compound 4e], in data set [1], the “C*8hr” value worked out at 30 ng/mL per mg/kg, the “AUC* parent” value turned out to be 510 ng-hr/ml per mg/kg, the “AUC* TylA (metabolite)” value is on record as less than 0.6 ng-hr/ml per mg/kg and the “C*8hr/ EC50” value worked out at 1.03 ng/ml/nM per mg/kg. Also, the “AUC*/EC50” value in data set [1] amounted to 17.6 ng-hr/ml/nM per mg/kg. Moreover, in data set [1] (oral dosing), the “drug levels relative to 2'-OH partners 5c and 5d” value is on record as “more than 10 fold”; the “improvement in plasma drug levels (AUC) over TylA” value (“improvement … (AUC) over TylA” for short) is 40–50 fold.

As to josmycin, the “activity against Wolbachia” value in data set [2] was “inactive”.

As for spiramycin, the “activity against Wolbachia” value in data set [2] was “inactive”.

Usually EC50 stands for the concentration giving half of the maximal effect. For `CC[C@H]1OC(=O)C[C@@H](O)[C@H](C)[C@@H](O[C@@H]2O[C@H](C)[C@@H](O[C@H]3C[C@@](C)(O)[C@@H](O)[C@H](C)O3)[C@H](N(C)C)[C@H]2O)[C@@H](CC=O)C[C@@H](C)C(=O)/C=C/C(C)=C/[C@@H]1CO[C@@H]1O[C@H](C)[C@@H](O)[C@@H](OC)[C@H]1OC` [1 (TylA), Tylosin A], the permeability in the data set with MDR-MDCK monolayer is < 0.1X10^-6 cm/sec. In addition, the “length of recovered worms” value in the data set with Litomosoides sigmodontis (200 mg/kg IP BID x 7 days) is “notably shorter than controls”. Also, in the data set on Litomosoides sigmodontis (200 mg/kg PO BID x 7 days), the “length of recovered worms” value is recorded as “minimal response”. Moreover, in data set [1], the “C*8hr” value is reported as 0.5 ng/mL per mg/kg, the “AUC* parent” value is given as 9.6 ng-hr/ml per mg/kg, the “C*8hr/ EC50” value is 0.02 ng/ml/nM per mg/kg and the “AUC*/EC50” value worked out at 0.34 ng-hr/ml/nM per mg/kg. For the same molecule, the “drug levels IP arm relative to PO” value in data set [3] (BALB/c mice, 100 mg/kg IP or PO) is given as more than 30 fold. In data set [2] (C6/36, Wolbachia-infected insect cells, geometric mean (N), each N a duplicate measurement), this molecule returned an EC50 of 28 nM.

Turning to `CCC1OC(=O)CC(O)C(C)C(OC2OC(C)C(OC3CC(C)(O)C(OC(=O)C(C)(C)C)C(C)O3)C(N(C)C)C2O)C(CC=O)CC(C)C(=O)C=CC(C)=CC1COC1OC(C)C(O)C(OC)C1OC` (stereo not shown) [Compound 5b], in data set [1], the “C*8hr” value is 3.0 ng/mL per mg/kg, the “AUC* parent” value came out at 58 ng-hr/ml per mg/kg, the “AUC* TylA (metabolite)” value was less than 0.6 ng-hr/ml per mg/kg and the “C*8hr/ EC50” value came out at 0.56 ng/ml/nM per mg/kg. Besides, the “AUC*/EC50” value in data set [1] amounted to 10.7 ng-hr/ml/nM per mg/kg. Besides, in data set [1] (oral dosing), the “potency-weighted AUC (AUC*/EC50) relative to TylA” value worked out at 30 fold and the “improvement … (AUC) over TylA” value is reported as 6 fold. In addition, the “deacylated product TylA as share of total circulating drug” value in data set [1] (rat pharmacokinetic study, oral) is less than 1%.

Consider `CCC1OC(=O)CC(O)C(C)C(OC2OC(C)C(OC3CC(C)(O)C(OC(=O)N(CC)CC)C(C)O3)C(N(C)C)C2OC(=O)C(C)C)C(CC=O)CC(C)C(=O)C=CC(C)=CC1COC1OC(C)C(O)C(OC)C1OC` (stereo not shown) [Compound 4d], for which, in data set [1], the “C*8hr” value came to 30 ng/mL per mg/kg, the “AUC* parent” value turned out to be 420 ng-hr/ml per mg/kg, the “AUC* TylA (metabolite)” value came out at 1.4 ng-hr/ml per mg/kg and the “C*8hr/ EC50” value was 1.25 ng/ml/nM per mg/kg. Also, the “AUC*/EC50” value in data set [1] turned out to be 17.5 ng-hr/ml/nM per mg/kg. Also, in data set [1] (oral dosing), the “drug levels relative to 2'-OH partners 5c and 5d” value is recorded as “more than 10 fold”; the “improvement … (AUC) over TylA” value was 40–50 fold.

For `CO[C@@H]1[C@@H](O[C@@H]2O[C@H](C)[C@@H](O[C@H]3C[C@@](C)(O)[C@@H](OC(=O)CC(C)C)[C@H](C)O3)[C@H](N(C)C)[C@H]2O)[C@@H](CC=O)C[C@@H](C)[C@@H](O)/C=C/C=C/C[C@@H](C)OC(=O)C[C@H]1O` [leucomycin], the “activity against Wolbachia” value in data set [2] is “inactive”.

In the case of `CCC(=O)O[C@@H]1CC(=O)O[C@H](C)C/C=C/C=C/[C@H](O)[C@H](C)C[C@H](CC=O)[C@H](O[C@@H]2O[C@H](C)[C@@H](O[C@H]3C[C@@](C)(O)[C@@H](OC(=O)CC)[C@H](C)O3)[C@H](N(C)C)[C@H]2O)[C@H]1OC` [midecamycin], the “activity against Wolbachia” value in data set [2] was “inactive”.

For the molecule `CCCCC(=O)OC1C(C)OC(OC2C(C)OC(OC3C(CC=O)CC(C)C(=O)C=CC(C)=CC(COC4OC(C)C(O)C(OC)C4OC)C(CC)OC(=O)CC(O)C3C)C(O)C2N(C)C)CC1(C)O` (stereo not shown) [Compound 5a], in data set [1], the “AUC* parent” value is reported as less than 0.6 ng-hr/ml per mg/kg and the “AUC* TylA (metabolite)” value is 30 ng-hr/ml per mg/kg. The “parent ester in plasma” value in data set [3] (mice, oral, any time point) is “no sign of parent is observed”. Also, the “increase in oral drug levels upon 4"-acylation” value in data set [3] (mice, measured drug is deacylated metabolite TylA) is ~ 3 fold. Moreover, the “potency improvement (EC50) over TylA” value in data set [2] (EC50 lower than parent TylA) was 25 fold.

As to `CCCCC(=O)OC1C(OC2C(CC=O)CC(C)C(=O)C=CC(C)=CC(COC3OC(C)C(O)C(OC)C3OC)C(CC)OC(=O)CC(O)C2C)OC(C)C(OC2CC(C)(O)C(O)C(C)O2)C1N(C)C` (stereo not shown) [Compound 2c], in data set [1], the “C*8hr” value was found to be 2.5 ng/mL per mg/kg, the “AUC* parent” value was 58 ng-hr/ml per mg/kg, the “AUC* TylA (metabolite)” value is 1.2 ng-hr/ml per mg/kg and the “C*8hr/ EC50” value amounted to 0.04 ng/ml/nM per mg/kg. Also, the “AUC*/EC50” value in data set [1] is 0.89 ng-hr/ml/nM per mg/kg. Moreover, in data set [1] (oral dosing), the “potency-weighted 8-hr drug level (C8hr/dose/EC50) relative to TylA” value is “doubles”, the “potency-weighted AUC (AUC*/EC50) relative to TylA” value is ~ 2.6 fold and the “improvement … (AUC) over TylA” value is 6 fold. In data set [1] (oral pharmacokinetic study), the “metabolic stability of substituent / species observed in plasma” value is “relatively metabolically stable”.
